From US9440982B2 (Eolas Therapeutics, Inc., priority 2012, dated 2016) come the findings set out here.

The test deals with T1, OX1 (Homo sapiens, UniProt O43613).
T1 construct: expressed in transfected cells; host or cells: CHO (CHO-OX1, kept under selection antibiotic)
T1 sequence (O43613 1-425): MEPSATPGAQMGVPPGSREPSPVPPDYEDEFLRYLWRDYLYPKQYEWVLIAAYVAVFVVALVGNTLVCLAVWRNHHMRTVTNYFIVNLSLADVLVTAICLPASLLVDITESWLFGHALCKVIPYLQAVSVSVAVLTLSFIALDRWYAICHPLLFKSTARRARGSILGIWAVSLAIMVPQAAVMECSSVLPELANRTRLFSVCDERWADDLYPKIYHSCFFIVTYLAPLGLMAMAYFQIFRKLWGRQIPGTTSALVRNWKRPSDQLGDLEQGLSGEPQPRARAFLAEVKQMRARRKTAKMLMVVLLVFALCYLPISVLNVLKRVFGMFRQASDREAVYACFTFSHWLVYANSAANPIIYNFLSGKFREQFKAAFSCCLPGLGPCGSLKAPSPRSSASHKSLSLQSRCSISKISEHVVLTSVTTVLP
Nature of the test: Orexin receptor cell-based functional assay, [Ca2+]i by FLIPR, CHO-OX1 cells. The settings on record: Table 2; CHO-OX1 cells, EC90 of OXA; read-out: IC50 Bioactivity OX1. On the procedure:
Measurement of [Ca^2+]i using a FLIPR: CHO—OX1 or CHO—OX2 cells are seeded into black-walled clear-base 384-well plates (Costar) at a density of 20,000 cells per well in F12-K medium supplemented with 10% FBS and selection antibiotic (500 ug/ml G418 or 15 ug/ml Blasticidin) and cultured overnight. The cells are incubated with equal volume of calcium4 loading buffer (Molecular Devices, Inc.) containing 2.5 mM probenecid at 37° C. for 30 min, followed by putative OX1 or OX2 receptor antagonists (dose-range 0.1 nM-10 μM) for another 30 min.
The cells are incubated with equal volume of calcium6 loading buffer (Molecular Devices, Inc.) containing 2.5 mM probenecid at 37° C. for 2 h, followed by test compounds (dose-range 0.1 nM-10 μM) for another 30 min.

Each structure is given as a SMILES string. Where only a bound is given, the exact number is not on record here.

Turning to `Cc1nc(C(=O)N2CC(F)CCC2CNC(=O)c2cccc3cccnc23)c(-c2ccccc2)s1` (racemic) [Example 1, N-((5-Fluoro-1-(2-methyl-5-phenylthiazole-4-carbonyl)piperidin-2-yl)methyl)quinoline-8-carboxamide], the IC50 (in general, the concentration that inhibits the measured activity by half) is 1 nM.

As for `COc1c(F)cccc1C(=O)N1CCC[C@@H](C)[C@H]1CNC(=O)c1cccc2cccnc12` (racemic) [Example 10, rac-cis-N-((1-(3-Fluoro-2-methoxybenzoyl)-3-methylpiperidin-2-yl)methyl)quinoline-8-carboxamide], the IC50 was less than 3000 nM.

Turning to `Cc1nc(C(=O)N2CCC[C@@H](C(F)(F)F)[C@H]2CNc2ccc(C(F)(F)F)cn2)c(-c2ccccc2)s1` (racemic) [Example 14, rac-cis-(2-Methyl-5-phenylthiazol-4-yl)(3-(trifluoromethyl)-2-(((5-(trifluoromethyl)pyridin-2-yl)amino)methyl)piperidin-1-yl)methanone], the IC50 stood at 9 nM.

With `CCc1cnc(NC[C@@H]2[C@H](C)CCCN2C(=O)c2nc(C)sc2-c2ccc(F)cc2)nc1` (racemic) [Example 16, rac-cis-(2-(((5-Ethylpyrimidin-2-yl)amino)methyl)-3-methylpiperidin-1-yl)(5-(4-fluorophenyl)-2-methylthiazol-4-yl)methanone], the IC50 stood at 8 nM.

Consider `COc1ccnc(NC[C@@H]2[C@H](C)CCCN2C(=O)c2nc(C)sc2-c2ccc(F)cc2)n1` (racemic) [Example 17, rac-cis-(5-(4-Fluorophenyl)-2-methylthiazol-4-yl)(2-(((4-methoxypyrimidin-2-yl)amino)methyl)-3-methylpiperidin-1-yl)methanone], for which the half-maximal inhibitory concentration (IC50) amounted to 52 nM.

Regarding `Cc1nc(C(=O)N2CCC[C@@H](C)[C@H]2CNc2ccc(Cl)cn2)c(-c2ccc(F)cc2)s1` (racemic) [Example 18, rac-cis-(2-(((5-Chloropyridin-2-yl)amino)methyl)-3-methylpiperidin-1-yl)(5-(4-fluorophenyl)-2-methylthiazol-4-yl)methanone], the IC50 is 16 nM.

As for `Cc1nc(C(=O)N2CCC[C@@H](C)[C@H]2CNc2ccnc(Cl)n2)c(-c2ccc(F)cc2)s1` (racemic) [Example 19, rac-cis-(2-(((2-Chloropyrimidin-4-yl)amino)methyl)-3-methylpiperidin-1-yl)(5-(4-fluorophenyl)-2-methylthiazol-4-yl)methanone], the IC50 came to 270 nM.

With `Cc1nc(C(=O)N2CCC[C@@H](C)[C@H]2CNc2cc(C(F)(F)F)ccn2)c(-c2ccc(F)cc2)s1` (racemic) [Example 21, rac-cis-(5-(4-Fluorophenyl)-2-methylthiazol-4-yl)(3-methyl-2-(((4-(trifluoromethyl)pyridin-2-yl)amino)methyl)piperidin-1-yl)methanone], the concentration for half-maximal inhibition (IC50) was determined as 24 nM.

Turning to `Cc1nc(C(=O)N2CCC[C@@H](C)[C@H]2CNc2ncccc2C(F)(F)F)c(-c2ccc(F)cc2)s1` (racemic) [Example 22, rac-cis-(5-(4-Fluorophenyl)-2-methylthiazol-4-yl)(3-methyl-2-(((3-(trifluoromethyl)pyridin-2-yl)amino)methyl)piperidin-1-yl)methanone], the IC50 came out at 82 nM.

For `Cc1nc(-c2ccccc2)c(C(=O)N2C(C)CCCC2CNC(=O)c2cccc3cccnc23)s1` (racemic) [Example 29, rac-N-((6-Methyl-1-(2-methyl-4-phenylthiazole-5-carbonyl)piperidin-2-yl)methyl)quinoline-8-carboxamide], the IC50 was determined as 200 nM.

With `Cc1nc(-c2ccccc2)c(C(=O)N2C(C)CCCC2CCOc2ccccc2)s1` (racemic) [Example 30, rac-(2-Methyl-4-phenylthiazol-5-yl)(2-methyl-6-(2-phenoxyethyl)piperidin-1-yl)methanone], the 50% inhibitory concentration (IC50) amounted to 220 nM.

As for `CC1CCCC(CCOc2ccccc2)N1C(=O)c1ccccc1-c1ccccc1` (racemic) [Example 31, rac-Biphenyl-2-yl(2-methyl-6-(2-phenoxyethyl)piperidin-1-yl)methanone], the IC50 was found to be 10 nM.

Regarding `Cc1nc(-c2ccccc2)c(C(=O)N2CC(O)CCC2CNC(=O)c2cccc3cccnc23)s1` (racemic) [Example 33, N-((5-Hydroxy-1-(2-methyl-4-phenylthiazole-5-carbonyl)piperidin-2-yl)methyl)quinoline-8-carboxamide], the 50% inhibitory concentration (IC50) was found to be 20 nM.

Consider `Cc1nc(-c2ccccc2)c(C(=O)N2CC(F)CCC2CNC(=O)c2cccc3cccnc23)s1` (racemic) [Example 35, N-((5-Fluoro-1-(2-methyl-4-phenylthiazole-5-carbonyl)piperidin-2-yl)methyl)quinoline-8-carboxamide], for which the IC50 was determined as 2 nM.

Take `NC1CCC(CNC(=O)c2cccc3cccnc23)N(C(=O)c2ccccc2-c2ccccc2)C1` (racemic) [Example 39, N-((5-Amino-1-(biphenylcarbonyl)piperidin-2-yl)methyl)quinoline-8-carboxamide]: the 50% inhibitory concentration (IC50) is 30 nM.

For `O=C(NCC1CCC(NCc2ccccc2)CN1C(=O)c1ccccc1-c1ccccc1)c1cccc2cccnc12` (racemic) [Example 40, N-((5-(Benzylamino)-1-(biphenylcarbonyl)piperidin-2-yl)methyl)quinoline-8-carboxamide], the IC50 is 600 nM.

In the case of `CN(C)C1CCC(CNC(=O)c2cccc3cccnc23)N(C(=O)c2ccccc2-c2ccccc2)C1` (racemic) [Example 41, N-((1-(Biphenylcarbonyl)-5-(dimethylamino)piperidin-2-yl)methyl)quinoline-8-carboxamide], the IC50 turned out to be 1500 nM.

In the case of `CNC1CCC(CNC(=O)c2cccc3cccnc23)N(C(=O)c2sc(C)nc2-c2ccccc2)C1` (racemic) [Example 45, N-((1-(2-Methyl-4-phenylthiazole-5-carbonyl)-5-(methylamino)piperidin-2-yl)methyl)quinoline-8-carboxamide], the concentration for half-maximal inhibition (IC50) is less than 10000 nM.

For the compound `CCNC1CCC(CNC(=O)c2cccc3cccnc23)N(C(=O)c2sc(C)nc2-c2ccccc2)C1` (racemic) [Example 46, N-((5-(Ethylamino)-1-(2-methyl-4-phenylthiazole-5-carbonyl)piperidin-2-yl)methyl)quinoline-8-carboxamide], the IC50 is less than 10000 nM.

Turning to `Cc1nc(-c2ccccc2)c(C(=O)N2CC(NCCO)CCC2CNC(=O)c2cccc3cccnc23)s1` (racemic) [Example 47, N-((5-(2-Hydroxyethylamino)-1-(2-methyl-4-phenylthiazole-5-carbonyl)piperidin-2-yl)methyl)quinoline-8-carboxamide], the IC50 is less than 10000 nM.

As for `Cc1nc(-c2ccccc2)c(C(=O)N2CC(NC(C)C)CCC2CNC(=O)c2cccc3cccnc23)s1` (racemic) [Example 48, N-((5-(Isopropylamino)-1-(2-methyl-4-phenylthiazole-5-carbonyl)piperidin-2-yl)methyl)quinoline-8-carboxamide], the half-maximal inhibitory concentration (IC50) is less than 10000 nM.

`CNC1CCC(CNC(=O)c2cccc3cccnc23)N(C(=O)c2ccccc2-c2ccccc2)C1` (racemic) [Example 49, N-((1-(Biphenylcarbonyl)-5-(methylamino)piperidin-2-yl)methyl)quinoline-8-carboxamide]: the 50% inhibitory concentration (IC50) was determined as 25 nM.

As for `COC1CCC(CNC(=O)c2cccc3cccnc23)N(C(=O)c2nc(C)sc2-c2cccc(F)c2)C1` (racemic) [Example 50, N-((1-(5-(3-Fluorophenyl)-2-methylthiazole-4-carbonyl)-5-methoxypiperidin-2-yl)methyl)quinoline-8-carboxamide], the 50% inhibitory concentration (IC50) amounted to 7 nM.

In the case of `Cc1nc(C(=O)N2CC(O)CCC2CNC(=O)c2cccc3cccnc23)c(-c2cccc(F)c2)s1` (racemic) [Example 51, N-((1-(5-(3-Fluorophenyl)-2-methylthiazole-4-carbonyl)-5-hydroxypiperidin-2-yl)methyl)quinoline-8-carboxamide], the concentration for half-maximal inhibition (IC50) amounted to 10 nM.

For the compound `Cc1nc(C(=O)N2CC(F)(F)CCC2CNC(=O)c2cccc3cccnc23)c(-c2cccc(F)c2)s1` (racemic) [Example 52, rac-N-((5,5-Difluoro-1-(5-(3-fluorophenyl)-2-methylthiazole-4-carbonyl)piperidin-2-yl)methyl)quinoline-8-carboxamide], the IC50 is 1 nM.

Consider `Cc1nc(C(=O)N2CC(N)CCC2CNC(=O)c2cccc3cccnc23)c(-c2cccc(F)c2)s1` (racemic) [Example 53, N-((5-Amino-1-(5-(3-fluorophenyl)-2-methylthiazole-4-carbonyl)piperidin-2-yl)methyl)quinoline-8-carboxamide], for which the IC50 came out at 65 nM.

As for `Cc1nc(C(=O)N2CC(NCCO)CCC2CNC(=O)c2cccc3cccnc23)c(-c2cccc(F)c2)s1` (racemic) [Example 54, N-((1-(5-(3-Fluorophenyl)-2-methylthiazole-4-carbonyl)-5-(2-hydroxyethylamino)piperidin-2-yl)methyl)quinoline-8-carboxamide], the IC50 turned out to be 180 nM.
